In patent publication US9169241B2, “Quinolinyloxyphenylsulfonamides” (Max-Planck-Gesellschaft Zur Forderung der Wissenschaften …, priority 2009, dated 2015):
Like-named read-outs stand apart in the source and are kept apart here.

Tests used:
Hs578T [1] = assay: Matrigel outgrowth assay/branching assay; assay type: cell-based; conditions: Homo sapiens, Hs-578T; HS578T cell line; Table Ib; read-out: Total branching inhibition in Matrigel HS578T
Method in brief: (§1)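 Matrigel 3 mg/ml, polymerized 1 h 37° C; 5000 cells/well + cmpd 3.125/1.56/0.78 μM or DMSO. Imaged 48/72/96 h, 5× objective. Positive = total branching block.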

A172 = assay: Cell vitality assay (ATP assay, CellTiter-Glo); assay type: cell-based; conditions: Homo sapiens, A 172; A172, 72 h; Table IIa; read-out: IC50 ATP-Assay after 72 h A172
Method in brief: (§2)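 IC50s reflect 50% loss of ATP-dependent luminescence versus DMSO control after a 72 h treatment of 1000 cells per well across 0.195–12.5 μM compound.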

SF126 = assay: Cell vitality assay (ATP assay, CellTiter-Glo); assay type: cell-based; conditions: Homo sapiens, SF-126; SF126, 72 h; Table IIa; read-out: IC50 ATP-Assay after 72 h SF126
Method in brief: as §2

Hs578T [2] = assay: Cell vitality assay (ATP assay, CellTiter-Glo); assay type: cell-based; conditions: Homo sapiens, Hs-578T; HS578T cell line, 72 h; Table Ib; read-out: IC50 ATP-Assay HS578T after 72 h
Method in brief: as §2

U118 = assay: Cell vitality assay (ATP assay, CellTiter-Glo); assay type: cell-based; conditions: U118, 72 h; Table IIa; read-out: IC50 ATP-Assay after 72 h U118
Method in brief: as §2

indicated cell line = assay: Wound healing migration assay (Table IV); assay type: cell-based; conditions: compounds at 12.5, 6.25, 3.125 μM, 48 h-72 h
Method in brief: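 Compound exposure at 12.5, 6.25 and 3.125 μM, with DMSO control, on scratch-wounded monolayers (150000 cells/24 well, overnight). Wound closure imaged by microscopy, fixed with crystal violet after 48 h or 72 h depending on cell line; IC50 is the concentration giving 50% wound size between t0 and t48/t72.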

tumor cell = assay: Matrigel outgrowth assay/branching assay (Table Va); assay type: cell-based
Method in brief: as §1

[3] = Homo sapiens, A 172, A172 cells, read-out: IC50 Wound healing Assay A172
[4] = Homo sapiens, SF-126, SF126 cells, read-out: IC50 Wound healing Assay SF126
[5] = U118 cells, read-out: IC50 Wound healing Assay U118
[6] = Homo sapiens, C8161 cells, read-out: IC50 Wound healing Assay C8161
[7] = SF763 cells, read-out: IC50 Wound healing Assay SF763
[8] = Homo sapiens, C8161 cells, read-out: Total branching inhibition in Matrigel C8161
[9] = Homo sapiens, Hs-578T, Hs578T cells, read-out: Total branching inhibition in Matrigel Hs578T
[10] = U118 cells, read-out: Total branching inhibition in Matrigel U118
[11] = U138 cells, read-out: Total branching inhibition in Matrigel U138

| Compound | melting point [°C] | IC50 (Hs578T [1]) [µM] | IC50 (A172) [µM] | IC50 (SF126) [µM] | IC50 (Hs578T [2]) [µM] | IC50 (U118) [µM] | IC50 (indicated cell line; [3]) [µM] | IC50 (indicated cell line; [4]) [µM] | IC50 (indicated cell line; [5]) [µM] | IC50 (indicated cell line; [6]) [µM] | IC50 (indicated cell line; [7]) [µM] | IC50 (tumor cell; [8]) [µM] | IC50 (tumor cell; [9]) [µM] | IC50 (tumor cell; [10]) [µM] | IC50 (tumor cell; [11]) [µM] |
| --- | --- | --- | --- | --- | --- | --- | --- | --- | --- | --- | --- | --- | --- | --- | --- |
| COC(=O)c1sccc1S(=O)(=O)Nc1ccc(Oc2ccnc3cc(OCCCN4CCC(C)CC4)c(OC)cc23)c(F)c1 [Example 156, 3-(3-Fluoro-4-{6-methoxy-7-[3-(4-methyl-piperidin-1-yl)-propoxy]-quinolin-4-yloxy}-phenylsulfamoyl)-thiophene-2-carboxylic acid methyl ester] | 139 to 141 | 10 to 25 | ≤ 12.5 | ≤ 12.5 | ≤ 12.5 | ≤ 12.5 | ≤ 12.5 | ≤ 12.5 | ≤ 12.5 |  |  |  |  |  |  |
| COc1cc2c(Oc3ccc(NS(=O)(=O)c4cc(F)ccc4F)cc3Cl)ccnc2cc1OCCCN1CCN(C)CC1 [Example 112, N-(3-Chloro-4-{6-methoxy-7-[3-(4-methyl-piperazin-1-yl)-propoxy]-quinolin-4-yloxy}-phenyl)-2,5-difluoro-benzenesulfonamide] | 118 to 121 | ≤ 10 | ≤ 12.5 | ≤ 12.5 | ≤ 12.5 | ≤ 12.5 | ≤ 12.5 | ≤ 12.5 | ≤ 12.5 |  |  |  |  |  |  |
| COc1cc2c(Oc3ccc(NS(=O)(=O)c4cc(Cl)cc(Cl)c4OC)cc3F)ccnc2cc1OCCCN1CCCCC1 [Example 34, 3,5-Dichloro-N-{3-fluoro-4-[6-methoxy-7-(3-piperidin-1-yl-propoxy)-quinolin-4-yloxy]-phenyl}-2-methoxy-benzenesulfonamide] | 173 to 175 | ≤ 10 |  |  | ≤ 12.5 |  |  |  |  | ≤ 12.5 | 12.5 to 50 | ≤ 5 | ≤ 5 | ≤ 5 | 5 to 50 |
| COc1cc2c(Oc3ccc(NS(=O)(=O)c4cccc(Cl)c4F)cc3F)ccnc2cc1OCCCN1CCCC(C)C1 (centres unmarked) [Example 54, 3-Chloro-2-fluoro-N-(3-fluoro-4-{6-methoxy-7-[3-(3-methyl-piperidin-1-yl)-propoxy]-quinolin-4-yloxy}-phenyl)-benzenesulfonamide] | 125 to 127 | 10 to 25 | ≤ 12.5 | 12.5 to 50 | ≤ 12.5 | ≤ 12.5 | ≤ 12.5 | ≤ 12.5 | ≤ 12.5 |  |  |  |  |  |  |
| COc1cc2c(Oc3ccc(NS(=O)(=O)c4c(F)cccc4F)cc3F)ccnc2cc1OCCCN1CCN(C)CC1 [Example 110, 2,6-Difluoro-N-(3-fluoro-4-{6-methoxy-7-[3-(4-methyl-piperazin-1-yl)-propoxy]-quinolin-4-yloxy}-phenyl)-benzenesulfonamide] |  | ≤ 10 | ≤ 12.5 | ≤ 12.5 | ≤ 12.5 | ≤ 12.5 | ≤ 12.5 | ≤ 12.5 | ≤ 12.5 |  |  |  |  |  |  |
| COc1cc2c(Oc3c(Cl)cc(NS(=O)(=O)c4c(F)cccc4F)cc3Cl)ccnc2cc1OCCCN1CCC(C)CC1 [Example 209, N-(3,5-Dichloro-4-{6-methoxy-7-[3-(4-methyl-piperidin-1-yl)-propoxy]-quinolin-4-yloxy}-phenyl)-2,6-difluoro-benzenesulfonamide] | 146 to 151 | ≤ 10 | ≤ 12.5 | ≤ 12.5 | ≤ 12.5 | ≤ 12.5 | ≤ 12.5 | ≤ 12.5 | ≤ 12.5 |  |  |  |  |  |  |
| COc1cc2c(Oc3ccc(NS(=O)(=O)c4ccccc4[N+](=O)[O-])cc3F)ccnc2cc1OCCCN1CCCC(C)C1 (centres unmarked) [Example 40, N-(3-Fluoro-4-{6-methoxy-7-[3-(3-methyl-piperidin-1-yl)-propoxy]-quinolin-4-yloxy}-phenyl)-2-nitro-benzenesulfonamide] | 136 to 138 | ≤ 10 | ≤ 12.5 | ≤ 12.5 | ≤ 12.5 | 12.5 to 50 | ≤ 12.5 | ≤ 12.5 | ≤ 12.5 |  |  |  |  |  |  |
| COc1cc2c(Oc3ccc(NS(=O)(=O)c4c(F)cccc4F)cc3F)ccnc2cc1OCCCN(C)C [Example 178, N-{4-[7-(3-Dimethylamino-propoxy)-6-methoxy-quinolin-4-yloxy]-3-fluoro-phenyl}-2,6-difluoro-benzenesulfonamide] | 125 to 127 | ≤ 10 | ≤ 12.5 | ≤ 12.5 | ≤ 12.5 | ≤ 12.5 | ≤ 12.5 | ≤ 12.5 | ≤ 12.5 |  |  |  |  |  |  |
| COc1cc2c(Oc3ccc(NS(=O)(=O)c4cccc5ccccc45)cc3F)ccnc2cc1OCCCN1CCCC(C)C1 (centres unmarked) [Example 58, Naphthalene-1-sulfonic acid (3-fluoro-4-{6-methoxy-7-[3-(3-methyl-piperidin-1-yl)-propoxy]-quinolin-4-yloxy}-phenyl)-amide] | 131 to 133 | ≤ 10 |  |  | ≤ 12.5 |  |  |  |  | 12.5 to 50 | ≤ 12.5 | ≤ 5 | ≤ 5 | ≤ 5 | 5 to 50 |
| COc1cc2c(Oc3cccc(NS(=O)(=O)c4ccccc4C(F)(F)F)c3)ccnc2cc1OCCCN1CCN(C)CC1 [Example 102, N-(3-{6-Methoxy-7-[3-(4-methyl-piperazin-1-yl)-propoxy]-quinolin-4-yloxy}-phenyl)-2-trifluoromethyl-benzenesulfonamide] | 155 to 156 | 10 to 25 |  |  | ≤ 12.5 |  |  |  |  | 12.5 to 50 | ≤ 12.5 | ≤ 5 | ≤ 5 | ≤ 5 | 5 to 50 |
| COc1cc2c(Oc3ccc(NS(=O)(=O)c4ccccc4F)cc3F)ccnc2cc1OCCN1CCOCC1 [Example 81, 2-Fluoro-N-{3-fluoro-4-[6-methoxy-7-(2-morpholin-4-yl-ethoxy)-quinolin-4-yloxy]-phenyl}-benzenesulfonamide] | 168 to 169 | ≤ 10 |  |  | ≤ 12.5 |  |  |  |  | ≤ 12.5 | 12.5 to 50 | ≤ 5 | ≤ 5 | 5 to 50 | 5 to 50 |
| COc1cc2c(Oc3ccc(NS(=O)(=O)c4cc(Cl)cc(Cl)c4OC)cc3F)ccnc2cc1OCCCN1CCN(C)CC1 [Example 35, 3,5-Dichloro-N-(3-fluoro-4-{6-methoxy-7-[3-(4-methyl-piperazin-1-yl)-propoxy]-quinolin-4-yloxy}-phenyl)-2-methoxy-benzenesulfonamide] | 183 to 185 | ≤ 10 |  |  | ≤ 12.5 |  |  |  |  | ≤ 12.5 | ≤ 12.5 | ≤ 5 | ≤ 5 | ≤ 5 | 5 to 50 |
| COc1cc2c(Oc3ccc(NS(=O)(=O)c4c(F)cccc4F)cc3F)ccnc2cc1OCCN1CCOCC1 [Example 82, 2,6-Difluoro-N-{3-fluoro-4-[6-methoxy-7-(2-morpholin-4-yl-ethoxy)-quinolin-4-yloxy]-phenyl}-benzenesulfonamide] | 182 to 183 | ≤ 10 |  |  | ≤ 12.5 |  |  |  |  | ≤ 12.5 | ≤ 12.5 | 5 to 50 | ≤ 5 | ≤ 5 | 5 to 50 |
| COc1cc2c(Oc3ccc(NS(=O)(=O)c4ccc(F)c(Cl)c4)cc3F)ccnc2cc1OCCCN1CCCC(C)C1 (centres unmarked) [Example 57, 3-Chloro-4-fluoro-N-(3-fluoro-4-{6-methoxy-7-[3-(3-methyl-piperidin-1-yl)-propoxy]-quinolin-4-yloxy}-phenyl)-benzenesulfonamide] | 124 to 126 | ≤ 10 |  |  | ≤ 12.5 |  |  |  |  | ≤ 12.5 | 12.5 to 50 | 5 to 50 | ≤ 5 | ≤ 5 | ≤ 5 |
